30 molecules from article PMC7950324, “A general method for quantifying ligand binding to unmodified receptors using Gaussia luciferase” (The Journal of Biological Chemistry, 2021) can be followed below.

The target of test [1] is T1, ɑ1AAR (Homo sapiens, UniProt P35348). The test can be described thus: α1AAR ligand screening, plasma membrane–ligand BRET (α1AAR with GLuc–PM). The settings on record: for inhibition at 10 µM: 20 min.
The target in another test is T2, GLuc–ɑ1AAR (Homo sapiens, UniProt P35348).
T2 construct: Gaussia luciferase signal peptide (N); […]; expressed in transfected cells; host or cells: HEK 293T
The experiment in a line: Receptor–ligand BRET equilibrium binding, GLuc–α1AAR in HEK 293T cells.

For test [2], the target named is T1, ɑ1AAR. The experiment in a line: PM–ligand BRET equilibrium binding, α1AAR with GLuc–PM. Details: expressed in transfected cells; host or cells: HEK 293T.
The target of test [3] is AT1 angiotensin receptor (AT1R), untagged, rat (rat) (UniProt P25095). The experiment in a line: FRET or BRET; PM‒ligand (bystander) BRET with GLuc‒PM, equilibrium competition: live HEK 293T cells with unmodified receptor, GLuc‒PM and DN-Dyn; a fixed fluorescent ligand (1 μM TAMRA‒AngII, 300 ng/ml biotinylated EGF on Alexa Fluor 488 streptavidin, or 100 μg/ml Alexa Fluor 488 human transferrin) and increasing unlabeled ligand, 2 h at room temperature.

The target of test [4] is T3, AT1R (Rattus norvegicus, UniProt P25095).
T3 construct: expressed in transfected cells; host or cells: HEK 293T
T3 sequence (P25095 1-359): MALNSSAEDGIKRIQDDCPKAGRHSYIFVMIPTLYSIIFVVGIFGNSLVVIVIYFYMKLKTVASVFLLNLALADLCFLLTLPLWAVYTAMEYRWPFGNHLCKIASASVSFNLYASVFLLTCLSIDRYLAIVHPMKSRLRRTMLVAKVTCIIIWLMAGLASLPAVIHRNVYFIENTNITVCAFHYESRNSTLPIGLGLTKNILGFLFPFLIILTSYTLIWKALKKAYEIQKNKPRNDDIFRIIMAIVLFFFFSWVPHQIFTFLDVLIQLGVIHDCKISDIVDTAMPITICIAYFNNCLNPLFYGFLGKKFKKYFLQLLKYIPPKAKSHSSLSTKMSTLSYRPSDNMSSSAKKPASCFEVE
The experiment in a line: PM–ligand BRET equilibrium binding, untagged AT1R with GLuc–PM. The settings on record: two site competitive fit.

Test [5] deals with AT2 angiotensin receptor (AT2R), untagged, rat (rat) (UniProt P35351). The experiment in a line: FRET or BRET; PM‒ligand (bystander) BRET with GLuc‒PM, equilibrium competition: live HEK 293T cells with unmodified receptor, GLuc‒PM and DN-Dyn; a fixed fluorescent ligand (1 μM TAMRA‒AngII, 300 ng/ml biotinylated EGF on Alexa Fluor 488 streptavidin, or 100 μg/ml Alexa Fluor 488 human transferrin) and increasing unlabeled ligand, 2 h at room temperature.

The target in a further test is T4, NanoLuc–AT1R (Rattus norvegicus, UniProt P25095).
T4 construct: secretion signal peptide of interleukin-6 (N); expressed in transfected cells; host or cells: HEK 293T
T4 sequence (P25095 1-359): T3 sequence (P25095 1-359)
The experiment in a line: Receptor–ligand BRET equilibrium binding, NanoLuc–AT1R in HEK 293T cells. The settings on record: 1 μM TAMRA–AngII, two site competitive fit, 2 h room temperature.

In test [6] the target is T5, GLuc–AT1R (Rattus norvegicus, UniProt P25095).
T5 construct: Gaussia luciferase signal peptide (N); expressed in transfected cells; host or cells: HEK 293T
T5 sequence (P25095 1-359): T3 sequence (P25095 1-359)
The test can be described thus: Receptor–ligand BRET equilibrium binding, GLuc–AT1R in HEK 293T cells. The conditions noted are these: 1 μM TAMRA–AngII, two site competitive fit, 2 h room temperature.

Test [7] concerns the target T3, AT1R. The experiment in a line: PM–ligand BRET equilibrium binding, untagged AT1R with NanoLuc–PM. The conditions noted are these: 1 μM TAMRA–AngII, two site competitive fit.
Test [8] has as its target T5, GLuc–AT1R. The test can be described thus: Kinetic receptor–ligand BRET, GLuc–AT1R. In kind it is binding.
Test [9] deals with T3, AT1R. The test can be described thus: Kinetic PM–ligand BRET, AT1R with GLuc–PM. In kind it is binding.
Where [10] appears, read: read-out: plasma membrane-ligand BRET decrease (%) Replicate1.
[11] abbreviates: read-out: plasma membrane-ligand BRET decrease (%) Replicate2.
Setting [12] is: 375 nM BODIPY FL–prazosin, one site competitive fit, receptor–ligand BRET.
Where [13] appears, read: 375 nM BODIPY FL–prazosin, one site competitive fit, PM–ligand BRET.

Read-outs that look alike come from different tables or passages of the source.

T1 sequence (P35348 whole entry): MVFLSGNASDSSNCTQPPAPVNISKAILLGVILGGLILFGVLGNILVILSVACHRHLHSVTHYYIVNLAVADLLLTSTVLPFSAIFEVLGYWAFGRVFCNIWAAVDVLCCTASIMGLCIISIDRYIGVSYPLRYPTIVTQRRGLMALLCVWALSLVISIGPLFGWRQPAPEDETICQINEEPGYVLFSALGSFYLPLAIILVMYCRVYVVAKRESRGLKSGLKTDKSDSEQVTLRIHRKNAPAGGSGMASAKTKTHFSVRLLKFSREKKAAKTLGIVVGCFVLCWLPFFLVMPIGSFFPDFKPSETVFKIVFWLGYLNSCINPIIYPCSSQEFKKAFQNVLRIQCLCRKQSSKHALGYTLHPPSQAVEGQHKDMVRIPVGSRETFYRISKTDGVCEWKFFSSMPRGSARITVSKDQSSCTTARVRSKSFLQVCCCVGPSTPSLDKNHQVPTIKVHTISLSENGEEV
T2 sequence (P35348 whole entry): as above
AT2 angiotensin receptor (AT2R), untagged, rat (rat), sequence (P35351 whole entry): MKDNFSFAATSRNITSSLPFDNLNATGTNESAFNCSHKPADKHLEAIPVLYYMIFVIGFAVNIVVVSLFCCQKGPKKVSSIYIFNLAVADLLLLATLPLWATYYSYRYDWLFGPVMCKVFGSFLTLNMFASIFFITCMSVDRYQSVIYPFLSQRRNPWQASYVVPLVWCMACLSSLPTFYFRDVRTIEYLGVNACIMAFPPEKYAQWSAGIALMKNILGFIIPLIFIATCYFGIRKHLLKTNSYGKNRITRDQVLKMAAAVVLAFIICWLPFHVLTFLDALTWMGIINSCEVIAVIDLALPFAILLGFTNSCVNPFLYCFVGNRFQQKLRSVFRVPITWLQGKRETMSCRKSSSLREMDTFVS

As to `Cc1cc(S(=O)(=O)NCc2ccccc2)ccc1OCC(=O)N1CCN(C)CC1` [BCC0113627], the inhibition at 10 µM on ɑ1AAR [1] (setting [10]) was 1.05%; on ɑ1AAR [1] (setting [11]), -3.63%.

Turning to `CSc1ccc(CNC2CN3CCC2CC3)cc1` (stereo not shown) [BCC0080607], the inhibition at 10 µM at ɑ1AAR [1] (setting [10]) is -0.99%; at ɑ1AAR [1] (setting [11]), 2.8%.

In the case of `COc1ccc(C(=O)NCCN2CCN(C(=O)c3ccc(OC)c(OC)c3)CC2)cc1OC` [BCC0048283], the inhibition at 10 µM is 0.72% on ɑ1AAR [1] (setting [10]) and 3.82% on ɑ1AAR [1] (setting [11]).

On to `CCCN1CCC(N2CCN(S(=O)(=O)c3ccc(C)cc3)CC2)CC1` [BCC0058402], for which the figures for the inhibition at 10 µM at ɑ1AAR [1] (setting [10]) and at ɑ1AAR [1] (setting [11]) were -0.92% and 2.58%, respectively.

Turning to `CC(C)(C)Nc1nnc(Sc2ncnc3sccc23)s1` [BCC0117056], the inhibition at 10 µM on ɑ1AAR [1] (setting [10]) is -11.6%; on ɑ1AAR [1] (setting [11]) it was -0.3%.

In the case of `O=C(CN1CCC(N2CCCCC2)CC1)N1CCC2(CC1)OCCO2` [BCC0092904], the inhibition at 10 µM on ɑ1AAR [1] (setting [10]) is -4.89%; on ɑ1AAR [1] (setting [11]) it was -1.52%.

For the molecule `O=C(NCCN1CCN(c2ccccc2)CC1)Nc1ccc2c(c1)OCCO2` [BCC0079473, 1-(2,3-Dihydro-1,4-benzodioxin-6-yl)-3-[2-(4-phenylpiperazin-1-yl)ethyl]urea], the results for the Ki on GLuc–ɑ1AAR (setting [12]) and on ɑ1AAR [2] (setting [13]) were 248 nM and 122 nM, respectively.

As for `Cc1ccnc(SCc2nc3ccccn3c2Br)n1` [BCC0020406], the inhibition at 10 µM at ɑ1AAR [1] (setting [10]) is -10.3%; at ɑ1AAR [1] (setting [11]) it was -12%.

`CS(=O)(=O)Nc1c(O)ccc2c1CCCC2C1=NCCN1` (stereo not shown) [Compound A61603, A61603, reference compound]: the figures for the inhibition at 10 µM at ɑ1AAR [1] (setting [10]) and on ɑ1AAR [1] (setting [11]) were -74% and -76%, respectively.

Regarding `Cc1cc(C(=O)NCc2ccc(F)cc2)on1` [BCC0004615], the inhibition at 10 µM on ɑ1AAR [1] (setting [10]) is -12.9%; on ɑ1AAR [1] (setting [11]), -13.9%.

Take `COc1ccc(-c2nnc(SCC(=O)Nc3cc(C)cc(C)c3)[nH]2)cc1` [BCC0072526, N-(3,5-Dimethylphenyl)-2-[[5-(4-methoxyphenyl)-1H-1,2,4-triazol-3-yl]sulfanyl]acetamide]: the inhibition constant (Ki) on GLuc–ɑ1AAR (setting [12]) was determined as 215 nM; at ɑ1AAR [2] (setting [13]), 86.1 nM.

For the molecule `CN(C)CCCNCc1ccc2c(c1)OCO2` [BCC0076253], the results for the inhibition at 10 µM at ɑ1AAR [1] (setting [10]) and at ɑ1AAR [1] (setting [11]) were -1.24% and -0.43%, respectively.

Turning to `O=C(Cn1nnc2ccccc21)N1CCC(n2c(=O)oc3ccccc32)CC1` [BCC0101075], the inhibition at 10 µM at ɑ1AAR [1] (setting [10]) was -4.37%; at ɑ1AAR [1] (setting [11]) it was -10.8%.

As to “[Sar^1,Ile^4,Ile^8]-angiotensin II (SII) (peptide)”, in [3], the IC50 of the high-affinity site (IC50 Hi) is 1280 nM.

As for `O=C(CN1CCC(n2nnc3cc(F)ccc32)CC1)N1CCc2ccccc2C1` [BCC0061678, 1-(3,4-Dihydro-1H-isoquinolin-2-yl)-2-[4-(5-fluorobenzotriazol-1-yl)piperidin-1-yl]ethanone], the results for the Ki on GLuc–ɑ1AAR (setting [12]) and at ɑ1AAR [2] (setting [13]) were 274 nM and 180 nM, respectively.

On to `O=C(c1noc2c1COc1ccccc1-2)N1CCN(c2cccc(Cl)c2)CC1` [BCC0066678], for which the inhibition at 10 µM was -4.28% at ɑ1AAR [1] (setting [10]) and -2.43% on ɑ1AAR [1] (setting [11]).

On to `O=C(/C=C/c1nc2ccccc2o1)N1CCC(c2c[nH]c3ccccc23)CC1` [BCC0010913, (E)-3-(1,3-Benzoxazol-2-yl)-1-[4-(1H-indol-3-yl)piperidin-1-yl]prop-2-en-1-one], for which the results for the Ki at GLuc–ɑ1AAR (setting [12]) and on ɑ1AAR [2] (setting [13]) were 2750 nM and 1840 nM, respectively.

Consider `Cc1cc(C)c(CNC(=O)c2ccc(NC(=O)C3CC3)cc2)c(=O)[nH]1` [BCC0003661], for which the inhibition at 10 µM is -7.67% at ɑ1AAR [1] (setting [10]) and -9.71% at ɑ1AAR [1] (setting [11]).

In the case of `CC[C@H](C)[C@H](NC(=O)[C@@H]1CCCN1C(=O)[C@H](Cc1c[nH]cn1)NC(=O)[C@@H](NC(=O)[C@@H](NC(=O)[C@@H](NC(=O)[C@H](CCCNC(=N)N)NC(=O)CNC)C(C)C)[C@@H](C)CC)[C@@H](C)CC)C(=O)O` [SII, [Sar^1,Ile^4,Ile^8]-angiotensin II], the IC50 at AT1R [4] (read-out: IC50_Hi, agonist binding, GLuc–PM (Fig. 2M)) is 1280 nM.

Turning to angiotensin II (AngII) (peptide), the IC50 in test [5] was found to be 479 nM.

As to `FC(F)(F)c1cccc(OCCn2cncn2)c1` [BCC0089082], the figures for the inhibition at 10 µM on ɑ1AAR [1] (setting [10]) and on ɑ1AAR [1] (setting [11]) were 2.21% and 4.76%, respectively.

As for `CCOc1nc2cccc(C(=O)O)c2n1Cc1ccc(-c2ccccc2-c2nnn[nH]2)cc1` [candesartan], the IC50 at NanoLuc–AT1R (read-out: IC50_Hi) was 0.52 nM; on NanoLuc–AT1R (read-out: IC50_Lo) it was 1 nM; at GLuc–AT1R [6] (read-out: IC50_Hi), 0.207 nM; at GLuc–AT1R [6] (read-out: IC50_Lo), 1.3 nM; at AT1R [7] (read-out: IC50_Hi) it was 1.29 nM; on AT1R [7] (read-out: IC50_Lo) it was 19.6 nM. The IC50 worked out at 1.24 nM on AT1R [4] (1 μM TAMRA–AngII, GLuc–PM, read-out: IC50_Hi) and 248000 nM at AT1R [4] (1 μM TAMRA–AngII, GLuc–PM, read-out: IC50_Lo). The results for the koff on GLuc–AT1R [8] and at AT1R [9] were 0.00123 s⁻¹ and 0.000833 s⁻¹, respectively. In addition, the on-rate (kon) stood at 540000 M⁻¹ s⁻¹ on GLuc–AT1R [8] and 278000 M⁻¹ s⁻¹ at AT1R [9].

As to `COc1ccccc1OCCNCC(O)COc1cccc2[nH]c3ccccc3c12` (stereo not shown) [carvedilol, reference compound], the inhibitory constant (Ki) at GLuc–ɑ1AAR turned out to be 62.7 nM; on ɑ1AAR [2], 43.8 nM.

As to `CN1CCCCC1C#CC(O)(c1ccccc1)c1ccccc1` (stereo not shown) [BCC0068132], at ɑ1AAR [1], the “plasma membrane-ligand BRET decrease (%) Replicate1” value was -4,21% and the “plasma membrane-ligand BRET decrease (%) Replicate2” value is recorded as -5,19%.

Consider `CC(NC(=O)C1CC1C)c1ccc(-n2cncn2)cc1` (stereo not shown) [BCC0008909], for which the inhibition at 10 µM at ɑ1AAR [1] (setting [10]) was 4.15%; at ɑ1AAR [1] (setting [11]), -0.3%.

As for `COc1ccccc1NS(=O)(=O)c1ccc2c(c1)SC(C)C(=O)N2` (stereo not shown) [BCC0083047], the inhibition at 10 µM at ɑ1AAR [1] (setting [10]) is -3.44%; on ɑ1AAR [1] (setting [11]), -2.12%.

With `O=C(CN1CCN(CC(=O)Nc2cccc([N+](=O)[O-])c2)CC1)Nc1cccc([N+](=O)[O-])c1` [BCC0036095], the inhibition at 10 µM was -1.4% at ɑ1AAR [1] (setting [10]) and 3.14% on ɑ1AAR [1] (setting [11]).

As to `CN1CCN(C(=O)c2ccc(-n3nc(C(F)(F)F)c4c3CCCC4)cc2)CC1` [BCC0063211], the inhibition at 10 µM turned out to be 3.59% at ɑ1AAR [1] (setting [10]) and 4.59% on ɑ1AAR [1] (setting [11]).

Turning to `C=CCOc1ccc2[nH]c(C)c(C(=O)OCC)c2c1` [BCC0065386], the inhibition at 10 µM amounted to 4.81% at ɑ1AAR [1] (setting [10]) and 1.12% on ɑ1AAR [1] (setting [11]).

Regarding `CCC(=O)c1ccc(OCCN2CCOCC2)cc1` [BCC0059938], the figures for the inhibition at 10 µM at ɑ1AAR [1] (setting [10]) and at ɑ1AAR [1] (setting [11]) were -1.24% and -1.63%, respectively.
